Experiments:
[1] = tested on: Hct116 resistant cell line clone #45 (p97 F539I); test: GI50 fold-change, resistant clone #45 vs parental; assay type: cell-based, human; details: Clone #45, Hct116, resistance generated with compound 4, T1615A / F539I; 72 hrs
Procedure: (§1) Dose titration of test compounds were conducted in Hct116, DLD-1, or LoVo cell lines. In brief, cells were plated in 384-well plates and a selected candidate drug compound was added in a 10-point 2-fold serial dilution.

[2] = tested on: Hct116 resistant cell line clone #3 (p97 G481A); details: Clone #3, Hct116, resistance generated with compound 2, G1442C / G481A; 72 hrs
[3] = tested on: Hct116 resistant cell line clone #42 (p97 P472A); test: GI50 fold-change, resistant clone #42 vs parental; assay type: cell-based, human; details: Clone #42, Hct116, resistance generated with compound 4, C1414G / P472A; 72 hrs
Procedure: as §1

[4] = tested on: DLD-1 resistant cell line clone #61 (p97 I620I/L); test: GI50 fold-change, resistant clone #61 vs parental; assay type: cell-based, human; details: Clone #61, DLD-1, resistance generated with compound 4, T1859T/C / I620I/L; 72 hrs
Procedure: as §1

[5] = tested on: Hct116 resistant cell line clone #11 (p97 E470D); details: Clone #11, Hct116, resistance generated with compound 3, G1410T / E470D; 72 hrs
[6] = tested on: Hct116 resistant cell line clone #137 (p97 T475I); test: GI50 fold-change, resistant clone #137 vs parental; assay type: cell-based, human; details: Clone #137, Hct116, resistance generated with compound 4, C1424T / T475I; 72 hrs
Procedure: as §1

[7] = tested on: p97 inhibitor resistant cell lines; test: GI50 fold-change in p97 inhibitor resistant cell lines (overall); assay type: cell-based, human; details: all resistant cell lines of Table 1, in words
Procedure: as §1

[8] = tested on: Hct116 resistant cell line clone #47 (p97 E498D); test: GI50 fold-change, resistant clone #47 vs parental; assay type: cell-based, human; details: Clone #47, Hct116, resistance generated with compound 4, G1494T / E498D; 72 hrs
Procedure: as §1

[9] = tested on: Hct116 resistant cell line clone #27 (p97 T688A); test: GI50 fold-change, resistant clone #27 vs parental; assay type: cell-based, human; details: Clone #27, Hct116, resistance generated with compound 4, A2062G / T688A; 72 hrs
Procedure: as §1

[10] = tested on: DLD-1 resistant cell line clone #83 (p97 N660N/D); test: GI50 fold-change, resistant clone #83 vs parental; assay type: cell-based, human; details: Clone #83, DLD-1, resistance generated with compound 4, A1978G/A / N660N/D; 72 hrs
Procedure: as §1

[11] = tested on: Hct116 resistant cell line clone #29 (p97 N660K); test: GI50 fold-change, resistant clone #29 vs parental; assay type: cell-based, human; details: Clone #29, Hct116, resistance generated with compound 4, C1980A / N660K; 72 hrs
Procedure: as §1

[12] = tested on: Hct116 resistant cell line clone #30 (p97 F516L); test: GI50 fold-change, resistant clone #30 vs parental; assay type: cell-based, human; details: Clone #30, Hct116, resistance generated with compound 4, T1546C / F516L; 72 hrs
Procedure: as §1

Row | SMILES | Fold Change in GI50 Compared to Parental Cell Line [1] | Fold Change in GI50 Compared to Parental Cell Line [2] | Fold Change in GI50 Compared to Parental Cell Line [3] | Fold Change in GI50 Compared to Parental Cell Line [4] | Fold Change in GI50 Compared to Parental Cell Line [5] | Fold Change in GI50 Compared to Parental Cell Line [6] | fold-change in GI50 for the p97 inhibitor resistant cell lines [7] | Fold Change in GI50 Compared to Parental Cell Line [8] | Fold Change in GI50 Compared to Parental Cell Line [9] | Fold Change in GI50 Compared to Parental Cell Line [10] | Fold Change in GI50 Compared to Parental Cell Line [11] | Fold Change in GI50 Compared to Parental Cell Line [12]
1 | CC(C)C[C@H](NC(=O)[C@H](Cc1ccccc1)NC(=O)c1cnccn1)B(O)O [Compound 1, [(1R)-3-methyl-1-[(2S)-3-phenyl-2-(pyrazin-2-ylformamido)propanamido]butyl]boronic acid, reference compound] | 0.8 fold | 0.9 fold | 1.0 fold | 0.8 fold | 1.0 fold | 0.8 fold | little fold-change in GI50 | 0.8 fold | 1.1 fold | 1.2 fold | 0.9 fold | 0.9 fold
2 | Cc1cc2c(C(N)=O)cccc2n1-c1nc2c(c(NCc3ccccc3)n1)COCC2 [Compound 4, 1-[4-(benzylamino)-5H,7H,8H-pyrano[4,3-d]pyrimidin-2-yl]-2-methyl-1H-indole-4-carboxamide] | 6.4 fold | 19.4 fold | 6.1 fold | 1.3 fold | 5.4 fold | 4.4 fold | – | 2.4 fold | 50.3 fold | 2.7 fold | 16.5 fold | 7.1 fold

— patent US20170159101A1, “DRUG-RESISTANT P97 ATPASE MUTATIONS” (Cleave Biosciences, Inc., priority 2014, published 2017)
